Data: patent EP0509845A1, “(+) and (-) enantiomers of 5-aliphatic-6-(benzoxazinyl- or benzothiazinyl)-2,3,4,5-tetrahydropyridazin-3-ones” (ORTHO PHARMACEUTICAL CORPORATION, priority 1991, dated 1992)
Like-named read-outs stand apart in the source and are kept apart here.

Experiments:
[1] = tested on: adult mongrel dogs; experiment: Cardiotonic activity, racemate testing in anesthetized dogs; type: in vivo
Procedure: The cardiotonic activity of the compounds was determined in accordance with the method of Alousi, A. A., et al., J. Cir. Res., 45, 666 (l979). Basically, adult mongrel dogs were anesthetized with sodium pentobarbital and artifically respired. Arterial pressure was recorded via a femoral artery and the pressure pulse used to trigger a cardiotachometer for heart rate. Left ventricular pressure was measured with a Millar catheter and dP/dt was derived. Cardiac output was determined by measuring ascending aortic blood flow with an electromagnetic flow probe and myocardial contractile force was measured with a Walton Brodie strain gauge sutured to the right ventricle. Lead II EKG was also recorded. A standard dose of dopamine was administered to assess myocardial responsiveness. Test compounds were administered by i.v. infusion or bolus administration and the effects on cardiovascular parameters were determined. Dose-related effects of the test compound on BP, HR, dP/dt max., C.F. and C.O. were compared to pretreatment control values and expressed as a percentage change.

[2] = target: T1, cyclic nucleotide phosphodiesterase (Canis lupus familiaris, UniProt A0A8I3NYE0); experiment: Phosphodiesterase inhibitory activity, racemate testing; type: biochemical; conditions: read-out: IC50 (Micromolar concentration for 50% inhibition of cyclic nucleotide activity); cyclic AMP as substrate, Tris-Cl buffer pH 7.4
T1 sequence (A0A8I3NYE0 1-1135): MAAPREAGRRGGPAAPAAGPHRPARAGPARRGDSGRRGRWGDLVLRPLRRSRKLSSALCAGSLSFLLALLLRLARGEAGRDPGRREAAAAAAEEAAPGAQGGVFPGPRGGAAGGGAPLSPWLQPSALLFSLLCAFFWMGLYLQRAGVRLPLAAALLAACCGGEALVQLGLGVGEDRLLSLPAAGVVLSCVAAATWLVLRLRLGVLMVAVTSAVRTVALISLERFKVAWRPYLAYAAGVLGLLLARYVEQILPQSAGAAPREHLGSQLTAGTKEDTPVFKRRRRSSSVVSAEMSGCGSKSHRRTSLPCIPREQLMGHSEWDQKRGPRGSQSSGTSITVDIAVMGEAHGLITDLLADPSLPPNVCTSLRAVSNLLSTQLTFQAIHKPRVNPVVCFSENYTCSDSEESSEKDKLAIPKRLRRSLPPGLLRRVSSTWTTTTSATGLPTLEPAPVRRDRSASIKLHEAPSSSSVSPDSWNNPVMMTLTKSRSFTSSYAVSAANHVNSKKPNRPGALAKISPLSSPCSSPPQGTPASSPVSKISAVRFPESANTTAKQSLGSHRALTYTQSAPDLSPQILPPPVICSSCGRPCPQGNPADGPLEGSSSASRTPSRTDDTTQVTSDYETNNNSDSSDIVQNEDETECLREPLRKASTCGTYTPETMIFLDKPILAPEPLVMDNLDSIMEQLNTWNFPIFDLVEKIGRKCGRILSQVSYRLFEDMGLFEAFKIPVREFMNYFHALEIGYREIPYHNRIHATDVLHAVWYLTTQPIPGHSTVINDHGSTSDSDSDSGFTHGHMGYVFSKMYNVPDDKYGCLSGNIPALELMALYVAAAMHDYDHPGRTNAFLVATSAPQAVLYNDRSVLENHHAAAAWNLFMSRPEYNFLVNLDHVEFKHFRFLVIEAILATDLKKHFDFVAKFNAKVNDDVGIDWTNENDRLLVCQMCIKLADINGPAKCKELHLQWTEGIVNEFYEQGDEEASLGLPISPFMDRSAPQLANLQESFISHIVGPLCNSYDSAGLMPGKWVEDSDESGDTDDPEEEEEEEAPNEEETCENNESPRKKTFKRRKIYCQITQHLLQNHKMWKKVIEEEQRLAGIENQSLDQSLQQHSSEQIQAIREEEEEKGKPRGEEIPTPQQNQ

[3] = tested on: adult mongrel dogs; experiment: Comparative racemate and enantiomer hemodynamic testing in pentobarbital anesthetized open-chest dogs; type: in vivo; conditions: dogs
Procedure: Adult mongrel dogs weighing approximately l0-l4 kg were anesthetized with sodium pentobarbital (35 mg/kg, i.p.) and artificially respired. A femoral artery was cannulated to measure mean arterial pressure (MAP) and a femoral vein was cannulated for administering compounds. A Millar microtip pressure transducer was placed in the left ventricle via the left carotid artery to measure left ventricular end diastolic pressure (EDP). pressure pulses triggered a cardiotachometer for determination of heart rate (HR) while the left ventricular pressure waveform was differentiated using a Gould differentiating amplifier to yield dP/dtmax, an index of contractility. A right thoractomy was performed at the fourth intercostal space and the pericardial sac was opened. An externally calibrated Walton-Brodie strain gauge arch was sutured to the right ventricular free wall and stretched to produce a baseline force of approximately l00g. Subsequent changes in right ventricular contractile force (CF) were measured from this baseline. A Carolina electromagnetic flow probe was placed on the ascending aorta to estimate cardiac output (CO). A flexible fluid-filled catheter was inserted into the tip of the right atrium to measure right atrial pressure (RAP). Needle electrodes were placed in the appropriate limbs to record a lead II electrocardiogram (ECG). The following formulas were used to calculate derived parameters: Stroke volume (SV) = CO/HR x l000 Stroke work (SW) = ([…]) x SV Total peripheral resistance (TPR) = (MAP-EDP)/CO
Following surgery and stabilization of hemodynamic parameters, an i.v. infusion of dopamine (l0-l5 µg/kg/min for 3 min) was administered with a Harvard infusion pump to assess responsiveness to positive inotropic stimulation. Baseline hemodynamic values were obtained immediately prior to drug infusion. Responses were continuously monitored on a recorder (Gould 2800) and data collection was facilitated by the use of a Buxco cardiovascular analyzer and data logger.
In the comparative testing a stock solution of each enantiomer (l mg/ml) was prepared fresh daily and diluted before use. Compounds were dissolved in a small volume of dimethylformamide (DMF) and diluted with saline for a final concentration of l5% DMF. Further dilutions were made with a l5% DMF solution.
In the comparative testing each compound was administered in cumulative doses to separate dogs. Data were obtained at the end of each dose. (±) Bemoradan and (+) Bemordan were infused at cumulative doses of 5, l5, 35 and 75 µg/kg, administered with a Harvard infusion pump for 5 minutes each at rates of 0.56, l.l, 2.2, and […], respectively. (-) Bemoradan was given at doses of 5, l5 and 35 µg/kg following the same protocol. The high dose of the (-) isomer was not administered as a means of conserving compound.
Hemodynamic results were expressed as the percent change from pre-drug baseline values and compared using a Dunnett's test with a criterion for significance of p < 0.05. Contractile force ED₄₀ values (i.e., the dose which increased contractile force by 40%) were calculated from dose-response regression lines.

[4] = target: T2, canine cardiac cyclic nucleotide phosphodiesterase (PDE) fraction III (Canis lupus familiaris, UniProt A0A8I3NYE0); experiment: Cyclic AMP phosphodiesterase assay with fraction III isoenzyme, comparative testing; type: biochemical
T2 construct: The fraction III isoenzyme was pooled and dialyzed; from tissue; host or cells: canine heart, soluble supernatant, DEAE cellulose fraction III (800 mM sodium acetate eluate)
T2 sequence (A0A8I3NYE0 1-1135): T1 sequence (A0A8I3NYE0 1-1135)

[5] = tested on: human platelet aggregation; experiment: Platelet aggregation in vitro in platelet rich plasma; type: cell-based; conditions: Homo sapiens, Platelet, human PRP
Procedure: The racemate and enantiomeric Bemoradan were tested for their effects in vitro on human platelet aggregation. Platelet rich plasma (PRP) was prepared from human donors who were free of aspirin for the preceding week. Venous blood was collected in sodium citrate vacutainer tubes and PRP was obtained by centrifuging the blood at l000 rpm for 5 min. Compounds were dissolved in methanol and added to 480 µl of PRP in a Chrono-log dual channel aggregometer l min prior to aggregant. Serotonin at 5 µM or ADP at 2 µM were the aggregating agents.

## COC(=O)CC(C)C(=O)c1ccc2c(c1)SCC(=O)N2C (stereo not drawn) [Example 53, Methyl 4-(3,4-dihydro-4-methyl-3-oxo-l,4[2H]-benzothiazin-7-yl)-3-methyl-4-oxobutyrate]
[1]; I.V. dose 0.075 mpk
  CF (Percent increase in cardiac force): 21%
[2]
  IC50: 25 µM

## CC1CC(=O)NN=C1c1ccc2c(c1)OCC(=O)N2 (racemic) [Example 46, 6-(3,4-Dihydro-3-oxo-l,4(2H)-benzoxazin-7-yl)-2,3,4,5-tetrahydro-5-methylpyridazin-3-one]
[3]; Canis lupus familiaris, iv, Table I summary, dose increasing contractile force by 40%, i.v., read-out: In vivo inotropic ED40, i.v.
  ED40: 4.4 µg/kg
[3]; dose causing a 40% increase in contractility above baseline, from dose-response regression lines, i.v. infusion
  CF ED40 (µg/kg) with 95% F.L.: 4.4 (3.9 - 4.9) µg/kg
[4]; Table I summary, canine cardiac PDE fraction III, read-out: PDE III inhibition (IC50)
  IC50: 0.71 µM
[4]; canine heart fraction III, 0.1 µM cyclic AMP, read-out: PDE III IC50
  IC50: 0.71 µM
[5]; ADP at 2 µM, read-out: Antiaggregatory IC50 (µM) vs. ADP
  IC50: 0.65 µM
[5]; Serotonin at 5 µM, read-out: Antiaggregatory IC50 (µM) vs. 5-HT
  IC50: 0.4 µM
[5]; Table I summary, ADP at 2 µM as aggregant, read-out: Platelet aggregation (IC50) vs. ADP
  IC50: 0.65 µM
[5]; Table I summary, serotonin at 5 µM as aggregant, read-out: Platelet aggregation (IC50) vs. 5-HT (serotonin)
  IC50: 0.4 µM

## O=C1CCC(c2ccc3c(c2)NC(=O)CS3)=NN1 [Example 54, 6-(3,4-Dihydro-3-oxo-l,4[2H]-benzothiazin-6-yl)-2,3,4,5-tetrahydropyridazin-3-one]
[1]; I.V. dose 0.075 mpk
  CF (Percent increase in cardiac force): 11%
[2]
  IC50: 22 µM

## CN1C(=O)CSc2ccc(C3=NNC(=O)CC3)cc21 [Example 55, 6-(3,4-Dihydro-4-methyl-3-oxo-l,4[2H]-benzothiazin-6-yl)-2,3,4,5-tetrahydropyridazin-3-one]
[1]; I.V. dose 0.035 mpk
  CF (Percent increase in cardiac force): 160%
[2]
  IC50: < 0.1 µM

## 6-(3,4-Dihydro-3-oxo-l,4[2H]-benzothiazin-7-yl)-2,3,4,5-tetrahydro-5-methylpyridazin-3-one [Example 56]
[1]; I.V. dose 0.027 mpk
  CF (Percent increase in cardiac force): 32%
